{
  "source": "patent US9771369B2",
  "about": "“Compounds and methods for kinase modulation, and indications therefor” (Plexxikon Inc., priority 2014, dated 2017)",
  "data": [
    {"molecular_target": "c-Kit kinase (Homo sapiens (Human), UniProt P10721)", "sequence (P10721 26-976)": "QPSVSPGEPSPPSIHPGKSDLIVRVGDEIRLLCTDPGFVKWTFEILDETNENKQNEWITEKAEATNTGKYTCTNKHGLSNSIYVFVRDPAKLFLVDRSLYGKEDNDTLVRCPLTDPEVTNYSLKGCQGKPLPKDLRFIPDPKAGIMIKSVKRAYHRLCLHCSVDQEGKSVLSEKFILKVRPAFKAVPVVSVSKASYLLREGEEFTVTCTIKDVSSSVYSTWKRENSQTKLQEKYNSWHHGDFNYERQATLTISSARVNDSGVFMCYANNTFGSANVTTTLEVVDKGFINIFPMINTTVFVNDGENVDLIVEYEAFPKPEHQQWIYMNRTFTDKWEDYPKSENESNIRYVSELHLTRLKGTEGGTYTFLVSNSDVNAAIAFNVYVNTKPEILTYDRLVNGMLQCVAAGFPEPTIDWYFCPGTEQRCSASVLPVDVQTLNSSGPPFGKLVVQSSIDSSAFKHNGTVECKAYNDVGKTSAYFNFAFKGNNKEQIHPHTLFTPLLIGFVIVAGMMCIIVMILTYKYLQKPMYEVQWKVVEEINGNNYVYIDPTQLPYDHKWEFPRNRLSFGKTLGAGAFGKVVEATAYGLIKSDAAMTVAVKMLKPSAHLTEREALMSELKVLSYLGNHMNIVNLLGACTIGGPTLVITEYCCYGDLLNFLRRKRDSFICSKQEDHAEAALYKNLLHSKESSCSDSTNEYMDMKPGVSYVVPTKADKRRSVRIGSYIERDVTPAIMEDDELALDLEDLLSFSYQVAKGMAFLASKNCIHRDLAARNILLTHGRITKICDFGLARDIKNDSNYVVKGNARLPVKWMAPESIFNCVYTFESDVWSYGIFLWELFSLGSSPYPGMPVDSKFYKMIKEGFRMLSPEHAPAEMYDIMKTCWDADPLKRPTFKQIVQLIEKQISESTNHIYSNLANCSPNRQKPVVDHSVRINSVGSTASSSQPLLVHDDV", "experiment": "c-Kit biochemical assay (AlphaScreen kinase activity)", "protocol": "Assays for biochemical cell-based activity of c-kit kinase are known in the art, for example, as described in U.S. Pat. Nos. 7,498,342 and 7,846,941, the disclosures of which are hereby incorporated by reference as it relates to such assays. The c-kit (or kinase domain thereof) is an active kinase in AlphaScreen. IC50 values are determined with respect to inhibition of c-Kit kinase activity, where inhibition of phosphorylation of a peptide substrate is measured as a function of compound concentration. Compounds to be tested were dissolved in DMSO to a concentration of 30 mM. These were diluted 30 μl into 130 μl of DMSO (4 mM) and 1 μl was added to an assay plate. These were then serially diluted 1:3 (50 μl to 100 μl DMSO) for a total of 8 points. Plates were prepared such that each kinase reaction is 30 μl in 1× kinase buffer (50 mM HEPES, pH 7.2, 5 mM MgCl2, 5 mM MnCl2, 0.01% NP-40, 0.2% BSA), 5% DMSO and 10 μM ATP. Substrate was 100 nM biotin-(E4Y)3 (Open Source Biotech, Inc.). C-kit kinase was at 0.1 ng per sample. After incubation of the kinase reaction for 1 hour at room temperature, 5 μl of donor beads (Streptavidin coated beads (Perkin Elmer Life Science) final concentration 1 μg/ml) in stop buffer (50 mM EDTA in 1× kinase buffer) was added, the sample was mixed and incubated for 30 minutes at room temperature before adding […] of acceptor beads (PY30 coated beads (Perkin Elmer Life Science) final concentration 1 μg/ml) in stop buffer. The samples were incubated for 60 minutes at room temperature and the signal per well was read on AlphaQuest reader. Phosphorylated substrate results in binding of the PY30 antibody and association of the donor and acceptor beads such that signal correlates with kinase activity. The signal vs. compound concentration was used to determine the IC50.\nCompounds were also tested using a similar assay with a 10-fold higher ATP concentration. For these samples, compounds to be tested were dissolved in DMSO to a concentration of 30 mM. These were diluted 30 μl into 130 μl of DMSO (4 mM) and 1 μl was added to an assay plate. These were then serially diluted 1:3 (50 μl to 100 μl DMSO) for a total of 8 points. Plates were prepared such that each kinase reaction is 30 μl in 1× kinase buffer (25 mM HEPES, pH 7.5, 2 mM MgCl2, 2 mM MnCl2, 0.01% […], 1 mM DTT, and 0.001% BSA), 5% DMSO and 100 μM ATP. Substrate was 30 nM biotin-(E4Y)10 (Upstate Biotech, Cat#12-440). C-kit kinase was at 1 ng per sample. After incubation of the kinase reaction for 1 hour at room temperature, 5 μl of donor beads (Streptavidin coated beads (Perkin Elmer Life Science) final concentration 10 μg/ml) in stop buffer (25 mM HEPES pH 7.5, 100 mM EDTA, 0.3% BSA) was added, the sample was mixed and incubated for 30 minutes at room temperature before adding 5 μl of acceptor beads (PY30 coated beads (Perkin Elmer Life Science) final concentration 10 μg/ml) in stop buffer. The samples were incubated for 60 minutes at room temperature and the signal per well was read on AlphaQuest or Envision reader (Perkin Elmer Life Science). Phosphorylated substrate results in binding of the PY30 antibody and association of the donor and acceptor beads such that signal correlates with kinase activity. The signal vs. compound concentration was used to determine the IC50.\nThe c-kit enzyme used in the above assay was either obtained from Cell Signaling Technology (Cat. #7754) or was prepared as follows: A plasmid encoding kit (DNA and encoded protein sequences shown below) was engineered using common polymerase chain reaction (PCR) methods. Complementary DNA cloned from various human tissues were purchased from Invitrogen, and these were used as substrates in the PCR reactions. Specific custom synthetic oligonucleotide primers were designed to initiate the PCR product, and also to provide the appropriate restriction enzyme cleavage sites for ligation with the plasmids. […]", "units": {"IC50": "µM"}, "values": [
      {"smiles": "COc1cc(-c2[nH]c(C3(C)CCN(c4ncnc5[nH]c(C)cc45)CC3)nc2C)ccc1C", "note": "[P-3105, 4-[4-[5-(3-methoxy-4-methyl-phenyl)-4-methyl-1H-imidazol-2-yl]-4-methyl-1-piperidyl]-6-methyl-7H-pyrrolo[2,3-d]pyrimidine]", "IC50": "1 to 10"},
      {"smiles": "COc1cc(-c2[nH]c(C3CCN(c4ncnc5[nH]c(-c6ccc(C#N)cc6)cc45)CC3)nc2C)ccc1C", "note": "[P-3106, 4-[4-[4-[5-(3-methoxy-4-methyl-phenyl)-4-methyl-1H-imidazol-2-yl]-1-piperidyl]-7H-pyrrolo[2,3-d]pyrimidin-6-yl]benzonitrile]", "IC50": "1 to 10"},
      {"smiles": "Cc1nc(C2CCN(c3ncnc4[nH]c(-c5cnn(C(F)F)c5)cc34)CC2)[nH]c1-c1ccc(F)cc1", "note": "[P-3107, 6-[1-(difluoromethyl)pyrazol-4-yl]-4-[4-[5-(4-fluorophenyl)-4-methyl-1H-imidazol-2-yl]-1-piperidyl]-7H-pyrrolo[2,3-d]pyrimidine]", "IC50": "0.0001 to 1"},
      {"smiles": "COc1ccc(-c2[nH]c(C3CCN(c4ncnc5[nH]c(-c6cnn(C(F)F)c6)cc45)CC3)nc2C)cc1", "note": "[P-3108, 6-[1-(difluoromethyl)pyrazol-4-yl]-4-[4-[5-(4-methoxyphenyl)-4-methyl-1H-imidazol-2-yl]-1-piperidyl]-7H-pyrrolo[2,3-d]pyrimidine]", "IC50": "0.0001 to 1"},
      {"smiles": "Cc1nc(C2CCN(c3ncnc4[nH]c(-c5ccc(F)cc5)cc34)CC2)[nH]c1-c1ccc2c(c1)OC(F)(F)O2", "note": "[P-3109, 4-[4-[5-(2,2-difluoro-1,3-benzodioxol-5-yl)-4-methyl-1H-imidazol-2-yl]-1-piperidyl]-6-(4-fluorophenyl)-7H-pyrrolo[2,3-d]pyrimidine]", "IC50": "1 to 10"},
      {"smiles": "Cc1nc(C2CCN(c3ncnc4[nH]c(-c5ccc(C#N)cc5)cc34)CC2)[nH]c1-c1ccc2c(c1)OC(F)(F)O2", "note": "[P-3110, 4-[4-[4-[5-(2,2-difluoro-1,3-benzodioxol-5-yl)-4-methyl-1H-imidazol-2-yl]-1-piperidyl]-7H-pyrrolo[2,3-d]pyrimidin-6-yl]benzonitrile]", "IC50": "10 to 300"},
      {"smiles": "COc1cc(-c2cc3c(N4CCC(c5nc(C)c(-c6ccc7c(c6)OC(F)(F)O7)[nH]5)CC4)ncnc3[nH]2)ccn1", "note": "[P-3111, 4-[4-[5-(2,2-difluoro-1,3-benzodioxol-5-yl)-4-methyl-1H-imidazol-2-yl]-1-piperidyl]-6-(2-methoxy-4-pyridyl)-7H-pyrrolo[2,3-d]pyrimidine]", "IC50": "10 to 300"},
      {"smiles": "COc1ccc(-c2[nH]c(C3CCN(c4ncnc5[nH]c(-c6ccc(C#N)cc6)cc45)CC3)nc2C)cn1", "note": "[P-3112, 4-[4-[4-[5-(6-methoxy-3-pyridyl)-4-methyl-1H-imidazol-2-yl]-1-piperidyl]-7H-pyrrolo[2,3-d]pyrimidin-6-yl]benzonitrile]", "IC50": "0.0001 to 1"},
      {"smiles": "Cc1nc(C2CCN(c3ncnc4[nH]c(-c5ccc(C#N)cc5)cc34)CC2)[nH]c1-c1ccc(OC(F)F)cc1", "note": "[P-3113, 4-[4-[4-[5-[4-(difluoromethoxy)phenyl]-4-methyl-1H-imidazol-2-yl]-1-piperidyl]-7H-pyrrolo[2,3-d]pyrimidin-6-yl]benzonitrile]", "IC50": "1 to 10"},
      {"smiles": "COc1cccc(-c2[nH]c(C3CCN(c4ncnc5[nH]c(-c6cnn(C(F)F)c6)cc45)CC3)nc2C)c1", "note": "[P-3114, 6-[1-(difluoromethyl)pyrazol-4-yl]-4-[4-[5-(3-methoxyphenyl)-4-methyl-1H-imidazol-2-yl]-1-piperidyl]-7H-pyrrolo[2,3-d]pyrimidine]", "IC50": "0.0001 to 1"},
      {"smiles": "Cc1nc(C2CCN(c3ncnc4[nH]c(-c5cnn(C(F)F)c5)cc34)CC2)[nH]c1-c1ccc(OC(F)F)cc1", "note": "[P-3115, 4-[4-[5-[4-(difluoromethoxy)phenyl]-4-methyl-1H-imidazol-2-yl]-1-piperidyl]-6-[1-(difluoromethyl)pyrazol-4-yl]-7H-pyrrolo[2,3-d]pyrimidine]", "IC50": "0.0001 to 1"},
      {"smiles": "Cc1nc(C2CCN(c3ncnc4[nH]c(-c5cnn(C(F)F)c5)cc34)CC2)[nH]c1-c1ccc(OC(F)(F)F)cc1", "note": "[P-3116, 6-[1-(difluoromethyl)pyrazol-4-yl]-4-[4-[4-methyl-5-[4-(trifluoromethoxy)phenyl]-1H-imidazol-2-yl]-1-piperidyl]-7H-pyrrolo[2,3-d]pyrimidine]", "IC50": "0.0001 to 1"},
      {"smiles": "COc1cc(-c2cc3c(N4CCC(c5nc(C)c(-c6ccc(C)s6)[nH]5)CC4)ncnc3[nH]2)ccn1", "note": "[P-3117, 6-(2-methoxy-4-pyridyl)-4-[4-[4-methyl-5-(5-methyl-2-thienyl)-1H-imidazol-2-yl]-1-piperidyl]-7H-pyrrolo[2,3-d]pyrimidine]", "IC50": "0.0001 to 1"},
      {"smiles": "Cc1ccc(-c2[nH]c(C3CCN(c4ncnc5[nH]c(-c6ccc(F)cc6)cc45)CC3)nc2C)s1", "note": "[P-3118, 6-(4-fluorophenyl)-4-[4-[4-methyl-5-(5-methyl-2-thienyl)-1H-imidazol-2-yl]-1-piperidyl]-7H-pyrrolo[2,3-d]pyrimidine]", "IC50": "0.0001 to 1"},
      {"smiles": "Cc1nc(C2CCN(c3ncnc4[nH]c(-c5ccc(F)cc5)cc34)CC2)[nH]c1-c1ccc(Cl)s1", "note": "[P-3119, 4-[4-[5-(5-chloro-2-thienyl)-4-methyl-1H-imidazol-2-yl]-1-piperidyl]-6-(4-fluorophenyl)-7H-pyrrolo[2,3-d]pyrimidine]", "IC50": "1 to 10"},
      {"smiles": "Cc1cc2c(N3CCC(c4nc(C)c(-c5ccc6c(c5)OCO6)[nH]4)CC3)ncnc2[nH]1", "note": "[P-3120, 4-[4-[5-(1,3-benzodioxol-5-yl)-4-methyl-1H-imidazol-2-yl]-1-piperidyl]-6-methyl-7H-pyrrolo[2,3-d]pyrimidine]", "IC50": "1 to 10"},
      {"smiles": "Cc1cc2c(N3CCC(c4nc(C)c(-c5ccc6c(c5)OCCO6)[nH]4)CC3)ncnc2[nH]1", "note": "[P-3121, 4-[4-[5-(2,3-dihydro-1,4-benzodioxin-6-yl)-4-methyl-1H-imidazol-2-yl]-1-piperidyl]-6-methyl-7H-pyrrolo[2,3-d]pyrimidine]", "IC50": "1 to 10"},
      {"smiles": "Cc1nn(C)cc1-c1cc2c(N3CCC(c4nc(C)c(-c5ccc(OC(F)(F)F)cc5)[nH]4)CC3)ncnc2[nH]1", "note": "[P-3122, 6-(1,3-dimethylpyrazol-4-yl)-4-[4-[4-methyl-5-[4-(trifluoromethoxy)phenyl]-1H-imidazol-2-yl]-1-piperidyl]-7H-pyrrolo[2,3-d]pyrimidine]", "IC50": "0.0001 to 1"},
      {"smiles": "COc1cccc(-c2[nH]c(C3CCN(c4ncnc5[nH]c(-c6ccnc(OC)c6)cc45)CC3)nc2C(F)(F)F)c1", "note": "[P-3123, 4-[4-[5-(3-methoxyphenyl)-4-(trifluoromethyl)-1H-imidazol-2-yl]-1-piperidyl]-6-(2-methoxy-4-pyridyl)-7H-pyrrolo[2,3-d]pyrimidine]", "IC50": "0.0001 to 1"},
      {"smiles": "COc1cccc(-c2[nH]c(C3CCN(c4ncnc5[nH]c(-c6ccc(C#N)cc6)cc45)CC3)nc2C(F)(F)F)c1", "note": "[P-3124, 4-[4-[4-[5-(3-methoxyphenyl)-4-(trifluoromethyl)-1H-imidazol-2-yl]-1-piperidyl]-7H-pyrrolo[2,3-d]pyrimidin-6-yl]benzonitrile]", "IC50": "0.0001 to 1"},
      {"smiles": "CCOc1ccc(-c2[nH]c(C3CCN(c4ncnc5[nH]c(C)cc45)CC3)nc2C)cc1C", "note": "[P-3125, 4-[4-[5-(4-ethoxy-3-methyl-phenyl)-4-methyl-1H-imidazol-2-yl]-1-piperidyl]-6-methyl-7H-pyrrolo[2,3-d]pyrimidine]", "IC50": "1 to 10"},
      {"smiles": "CCOc1cc(-c2[nH]c(C3CCN(c4ncnc5[nH]c(C)cc45)CC3)nc2C)ccc1C", "note": "[P-3126, 4-[4-[5-(3-ethoxy-4-methyl-phenyl)-4-methyl-1H-imidazol-2-yl]-1-piperidyl]-6-methyl-7H-pyrrolo[2,3-d]pyrimidine]", "IC50": "0.0001 to 1"},
      {"smiles": "Cc1cc2c(N3CCC(c4nc(C)c(-c5ccc6c(c5)OC(F)(F)O6)[nH]4)CC3)ncnc2[nH]1", "note": "[P-3127, 4-[4-[5-(2,2-difluoro-1,3-benzodioxol-5-yl)-4-methyl-1H-imidazol-2-yl]-1-piperidyl]-6-methyl-7H-pyrrolo[2,3-d]pyrimidine]", "IC50": "1 to 10"}
    ]}
  ]
}
